Our source for the mutagenic call values is PubChem BioAssay AID1259407 (Chemical Carcinogenesis Research Information System (CCRIS), 2018).

The subject of this data set is CCRIS mutagenicity, Ames/micronucleus/aberration tests. Description: CCRIS mutagenicity studies.
The mark [1] stands for this setting: Test System: AMES SALMONELLA TYPHIMURIUM, Strain/Indicator: TA97, Metabolic Activation: NONE, Method: PREINCUBATION
[2] abbreviates: Test System: AMES SALMONELLA TYPHIMURIUM, Strain/Indicator: TA98, Metabolic Activation: NONE, Method: PREINCUBATION
[3] abbreviates: Test System: AMES SALMONELLA TYPHIMURIUM, Strain/Indicator: TA100, Metabolic Activation: NONE, Method: PREINCUBATION
Where [4] appears, read: Test System: AMES SALMONELLA TYPHIMURIUM, Strain/Indicator: TA1535, Metabolic Activation: NONE, Method: PREINCUBATION
[5] abbreviates: Test System: AMES SALMONELLA TYPHIMURIUM, Strain/Indicator: TA98, Metabolic Activation: NONE, Method: STANDARD PLATE.
[6] abbreviates: Test System: AMES SALMONELLA TYPHIMURIUM, Strain/Indicator: TA100, Metabolic Activation: NONE, Method: STANDARD PLATE.

The source made the active and inactive calls. How the calls were made is not given here.

Consider `CC(Cl)(Cl)[N+](=O)[O-]`, for which the mutagenic call by setting is: (Test System: AMES SALMONELLA TYPHIMURIUM, Strain/Indicator: TA97, Metabolic Activation: HAMSTER, LIVER, S-9, AROCLOR 1254 (10%), Method: PREINCUBATION) “active; positive”; under setting [1], “active; positive”; (Test System: AMES SALMONELLA TYPHIMURIUM, Strain/Indicator: TA97, Metabolic Activation: RAT, LIVER, S-9, AROCLOR 1254 (10%), Method: PREINCUBATION) “active; positive”; (Test System: AMES SALMONELLA TYPHIMURIUM, Strain/Indicator: TA98, Metabolic Activation: HAMSTER, LIVER, S-9, AROCLOR 1254 (10%), Method: PREINCUBATION) “inactive; negative”; under setting [2], “inactive; negative”; (Test System: AMES SALMONELLA TYPHIMURIUM, Strain/Indicator: TA98, Metabolic Activation: RAT, LIVER, S-9, AROCLOR 1254 (10%), Method: PREINCUBATION) “inactive; negative”. Also, the mutagenic call reads like this: (Test System: AMES SALMONELLA TYPHIMURIUM, Strain/Indicator: TA100, Metabolic Activation: HAMSTER, LIVER, S-9, AROCLOR 1254 (10%), Method: PREINCUBATION) “active; positive”; under setting [3], “inactive; negative”; (Test System: AMES SALMONELLA TYPHIMURIUM, Strain/Indicator: TA100, Metabolic Activation: RAT, LIVER, S-9, AROCLOR 1254 (10%), Method: PREINCUBATION) “active; positive”; (Test System: AMES SALMONELLA TYPHIMURIUM, Strain/Indicator: TA1535, Metabolic Activation: HAMSTER, LIVER, S-9, AROCLOR 1254 (10%), Method: PREINCUBATION) “inactive; negative”; under setting [4], “inactive; negative”; (Test System: AMES SALMONELLA TYPHIMURIUM, Strain/Indicator: TA1535, Metabolic Activation: RAT, LIVER, S-9, AROCLOR 1254 (10%), Method: PREINCUBATION) “inactive; negative”.

Regarding `O=[N+]([O-])c1ccc2cccc3c2c1C=C3`, under setting [5], the mutagenic call is “active; positive”.

As to `CS(=O)(=O)c1ccc(O)c(N)c1`, the mutagenic call reads like this: (Test System: AMES SALMONELLA TYPHIMURIUM, Strain/Indicator: TA97, Metabolic Activation: HAMSTER, LIVER, S-9, AROCLOR 1254 (10 OR 30%), Method: PREINCUBATION) “inactive; negative”; under setting [1], “inactive; negative”; (Test System: AMES SALMONELLA TYPHIMURIUM, Strain/Indicator: TA97, Metabolic Activation: RAT, LIVER, S-9, AROCLOR 1254 (10 OR 30%), Method: PREINCUBATION) “inactive; negative”; (Test System: AMES SALMONELLA TYPHIMURIUM, Strain/Indicator: TA98, Metabolic Activation: HAMSTER, LIVER, S-9, AROCLOR 1254 (10 OR 30%), Method: PREINCUBATION) “inactive; negative”; under setting [2], “inactive; negative”; (Test System: AMES SALMONELLA TYPHIMURIUM, Strain/Indicator: TA98, Metabolic Activation: RAT, LIVER, S-9, AROCLOR 1254 (10 OR 30%), Method: PREINCUBATION) “inactive; negative”. In addition, the mutagenic call by setting is: (Test System: AMES SALMONELLA TYPHIMURIUM, Strain/Indicator: TA100, Metabolic Activation: HAMSTER, LIVER, S-9, AROCLOR 1254 (10 OR 30%), Method: PREINCUBATION) “inactive; negative”; under setting [3], “inactive; negative”; (Test System: AMES SALMONELLA TYPHIMURIUM, Strain/Indicator: TA100, Metabolic Activation: RAT, LIVER, S-9, AROCLOR 1254 (10 OR 30%), Method: PREINCUBATION) “inactive; negative”; (Test System: AMES SALMONELLA TYPHIMURIUM, Strain/Indicator: TA1535, Metabolic Activation: HAMSTER, LIVER, S-9, AROCLOR 1254 (10 OR 30%), Method: PREINCUBATION) “inactive; negative”; under setting [4], “inactive; negative”; (Test System: AMES SALMONELLA TYPHIMURIUM, Strain/Indicator: TA1535, Metabolic Activation: RAT, LIVER, S-9, AROCLOR 1254 (10 OR 30%), Method: PREINCUBATION) “inactive; negative”. Also, the mutagenic call is, setting by setting: (Test System: AMES SALMONELLA TYPHIMURIUM, Strain/Indicator: TA1537, Metabolic Activation: HAMSTER, LIVER, S-9, AROCLOR 1254 (10 OR 30%), Method: PREINCUBATION) “inactive; negative”; (Test System: AMES SALMONELLA TYPHIMURIUM, Strain/Indicator: TA1537, Metabolic Activation: NONE, Method: PREINCUBATION) “inactive; negative”; (Test System: AMES SALMONELLA TYPHIMURIUM, Strain/Indicator: TA1537, Metabolic Activation: RAT, LIVER, S-9, AROCLOR 1254 (10 OR 30%), Method: PREINCUBATION) “inactive; negative”.

`COc1ccc(C(=O)ON(OCc2ccccc2)C(=O)c2ccccc2)cc1`: the mutagenic call under setting [6] was “active; positive” and the mutagenic call (Test System: AMES SALMONELLA TYPHIMURIUM, Strain/Indicator: TA100, Metabolic Activation: RAT, S-9, AROCLOR, Method: STANDARD PLATE) is “active; positive”.

`COc1c(O)c2c(c3cc(C(=O)N4CCc5c4c(O)c(OC)c4[nH]c(C(=O)N6C[C@H]7C[C@@]78C6=CC(=O)c6[nH]cc(C)c68)cc54)[nH]c13)CCN2C(N)=O`: the mutagenic call under setting [5] was “inactive; negative”; the mutagenic call (Test System: AMES SALMONELLA TYPHIMURIUM, Strain/Indicator: TA98, Metabolic Activation: RAT, LIVER, S-9, AROCLOR 1254, Method: STANDARD PLATE) is “inactive; negative”; the mutagenic call under setting [6] was “inactive; negative”; the mutagenic call (Test System: CHINESE HAMSTER V-79, Strain/Indicator: V-79/6-THIOGUANINE, Metabolic Activation: NONE) was “active; positive”.

For the compound `O=C(O[C@@H]1Cc2c(O)cc(O)cc2O[C@H]1c1cc(O)c(O)c(O)c1)c1cc(O)c(O)c(O)c1`, the mutagenic call by setting is: (Test System: Ames Salmonella typhimurium, Strain/Indicator: TA102, Metabolic Activation: None, Method: Preincubation) “inactive; negative”; (Test System: Ames Salmonella typhimurium, Strain/Indicator: TA102, Metabolic Activation: Rat, Liver, S-9, Aroclor 1254 in 0.154 M KCl, Method: Preincubation) “inactive; negative”.

In the case of `Oc1cc(Cl)c(Cl)c(Cl)c1O`, the mutagenic call (Test System: CHINESE HAMSTER V-79, Strain/Indicator: V-79/6-THIOGUANINE, Metabolic Activation: NONE, Method: STANDARD PLATE) is “inactive; negative”.

`Nc1nc(-c2ccccc2)c(Br)c(=O)[nH]1`: the mutagenic call was “active; positive” (Test System: CHINESE HAMSTER OVARY, Strain/Indicator: CHO (HGPRT), Metabolic Activation: RAT, LIVER, S-9, AROCLOR 1254); “inactive; negative” (Test System: MOUSE LYMPHOMA, Strain/Indicator: L5178Y (TK+/TK-), Metabolic Activation: NONE, Method: SUSPENSION/PLATE); “inactive; negative” (Test System: MOUSE LYMPHOMA, Strain/Indicator: L5178Y (TK+/TK-), Metabolic Activation: RAT, LIVER, S-9, AROCLOR 1254, Method: SUSPENSION/PLATE).

Turning to `CC(=O)O[C@]1(C)C(=O)OC/C2=C/CN(C)CC[C@@H](OC(=O)C3(C[C@H]1C)O[C@@H]3C)C2=O` (stereo partly specified), the mutagenic call (Test System: UDS RAT HEPATOCYTES, Strain/Indicator: THY INCORP, Metabolic Activation: NONE, Method: AUTORADIOGRAPHY) is “active; positive”.
